# Data reported in EP0987268B1, “Pharmaceutical agents containing epothilone A-N-oxide and/or epothilone B-N-oxide” (Gesellschaft für Biotechnologische Forschung mbH (GBF), priority 1998, dated 2000).
# What was measured:
# Format in all cases: cell-based
# [1] = tested on: mouse fibroblast L929 (ATCC CCL1); assay: Cytotoxic activity, L929 cells; settings: cell line mouse fibroblast L929 (ATCC CCL1)
# [2] = tested on: human cervix carcinoma KB 3.1 (DSM ACC 158); assay: Cytotoxic activity, KB 3.1 cells; settings: KB 3-1, cell line human cervix carcinoma KB 3.1 (DSM ACC 158)
# [3] = tested on: human lung carcinoma A-549 (DSM ACC 107); assay: Cytotoxic activity, A-549 cells; settings: A549, cell line human lung carcinoma A-549 (DSM ACC 107)
smiles,measurement,setting,value
C/C(=C\c1csc(C)[n+]1[O-])[C@@H]1C[C@@H]2O[C@]2(C)CCC[C@H](C)[C@H](O)[C@@H](C)C(=O)C(C)(C)[C@@H](O)CC(=O)O1 [epothilone B-N-oxide],IC50,[1],4 nM
same,IC50,[2],2 nM
same,IC50,[3],1.5 nM
